Columns and labels:
Test in all cases: Kinase selectivity, Z'-LYTE
Assay type in all cases: biochemical
MAPK10 (JNK3) = target: T1, MAPK10 (JNK3) (Homo sapiens, UniProt P53779)
T1 construct: purchased Invitrogen (Life Technologies) SelectScreen Z'-LYTE
Method: (§1) Kinase selectivity was assessed using a commercial service that employs a fluorescence-based, coupled-enzyme assay based on the differential sensitivity of phosphorylated and non-phosphorylated peptides to proteolytic cleavage (Invitrogen, Z'-LYTE®). This assay uses recombinant protein kinases and assay mixed optimized for each particular kinase (http://www.lifetechnologies.com/us/en/home/life-science/drug-discovery/target-and-lead-identification-and-validation /kinasebiology/kinase-activity-assays/z-lyte.html).

MAP2K1 (MEK1) = target: T2, MAP2K1 (MEK1) (Homo sapiens, UniProt Q02750)
T2 construct: purchased Invitrogen (Life Technologies) SelectScreen Z'-LYTE
Method: as §1

CHEK2 (CHK2) = target: T3, CHEK2 (CHK2) (Homo sapiens, UniProt O96017)
T3 construct: purchased Invitrogen (Life Technologies) SelectScreen Z'-LYTE
Method: as §1

DYRK1A = target: T4, DYRK1A (Homo sapiens, UniProt Q13627)
T4 construct: purchased Invitrogen (Life Technologies) SelectScreen Z'-LYTE
Method: as §1

ACVR1B (ALK4) = target: T5, ACVR1B (ALK4) (Homo sapiens, UniProt P36896)
T5 construct: purchased Invitrogen (Life Technologies) SelectScreen Z'-LYTE
T5 sequence (P36896 24-505): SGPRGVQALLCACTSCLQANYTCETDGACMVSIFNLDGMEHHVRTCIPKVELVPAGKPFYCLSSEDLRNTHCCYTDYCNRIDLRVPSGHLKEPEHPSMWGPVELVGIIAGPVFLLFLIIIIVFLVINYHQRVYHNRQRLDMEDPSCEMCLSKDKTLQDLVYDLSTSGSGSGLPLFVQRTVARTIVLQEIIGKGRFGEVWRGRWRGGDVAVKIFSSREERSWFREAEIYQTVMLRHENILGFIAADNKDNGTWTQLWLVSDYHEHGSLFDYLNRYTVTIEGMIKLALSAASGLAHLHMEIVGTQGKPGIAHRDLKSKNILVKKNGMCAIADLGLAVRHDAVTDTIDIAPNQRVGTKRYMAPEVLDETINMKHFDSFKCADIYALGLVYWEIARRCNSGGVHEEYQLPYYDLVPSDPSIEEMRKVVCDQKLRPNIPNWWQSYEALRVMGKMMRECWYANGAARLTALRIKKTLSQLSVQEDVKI
Method: as §1

P1K3C2B (P13K-C2-beta) = target: T6, P1K3C2B (P13K-C2-beta) (Homo sapiens, UniProt O00750)
T6 construct: purchased Invitrogen (Life Technologies) SelectScreen Z'-LYTE
Method: as §1

PAK3 = target: T7, PAK3 (Homo sapiens, UniProt O75914)
T7 construct: purchased Invitrogen (Life Technologies) SelectScreen Z'-LYTE
Method: as §1

MARK3 = target: T8, MARK3 (Homo sapiens, UniProt P27448)
T8 construct: purchased Invitrogen (Life Technologies) SelectScreen Z'-LYTE
Method: as §1

PAK7 (KIAA 1264) = target: T9, PAK7 (KIAA 1264) (Homo sapiens, UniProt Q9P286)
T9 construct: purchased Invitrogen (Life Technologies) SelectScreen Z'-LYTE
Method: as §1

IGF1R = target: T10, IGF1R (Homo sapiens, UniProt P08069)
T10 construct: purchased Invitrogen (Life Technologies) SelectScreen Z'-LYTE
Method: as §1

PRKCE (PKC epsilon) = target: T11, PRKCE (PKC epsilon) (Homo sapiens, UniProt Q02156)
T11 construct: purchased Invitrogen (Life Technologies) SelectScreen Z'-LYTE
T11 sequence (Q02156 1-737): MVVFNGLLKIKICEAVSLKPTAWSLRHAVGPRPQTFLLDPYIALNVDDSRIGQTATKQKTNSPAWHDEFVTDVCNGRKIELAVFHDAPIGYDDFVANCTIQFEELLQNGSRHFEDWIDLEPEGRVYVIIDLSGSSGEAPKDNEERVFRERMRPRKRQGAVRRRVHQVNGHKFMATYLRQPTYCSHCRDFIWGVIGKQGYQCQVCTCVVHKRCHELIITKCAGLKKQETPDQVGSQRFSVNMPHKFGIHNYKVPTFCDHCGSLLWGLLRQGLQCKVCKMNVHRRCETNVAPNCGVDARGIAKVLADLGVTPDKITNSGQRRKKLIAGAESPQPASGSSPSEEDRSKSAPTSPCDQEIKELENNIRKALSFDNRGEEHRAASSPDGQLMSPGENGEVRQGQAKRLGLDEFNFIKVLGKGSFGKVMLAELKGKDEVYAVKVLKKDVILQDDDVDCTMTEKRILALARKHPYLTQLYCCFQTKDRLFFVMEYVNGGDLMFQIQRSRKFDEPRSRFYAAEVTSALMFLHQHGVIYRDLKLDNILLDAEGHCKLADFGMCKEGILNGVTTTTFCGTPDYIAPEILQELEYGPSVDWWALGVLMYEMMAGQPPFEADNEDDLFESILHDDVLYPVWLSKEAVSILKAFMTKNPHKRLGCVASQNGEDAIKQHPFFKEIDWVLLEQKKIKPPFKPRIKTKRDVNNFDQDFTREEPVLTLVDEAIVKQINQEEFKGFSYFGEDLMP
Method: as §1

BRAF = target: T12, BRAF (Homo sapiens, UniProt P15056)
T12 construct: purchased Invitrogen (Life Technologies) SelectScreen Z'-LYTE
Method: as §1

Pak4 = target: T13, Pak4 (Homo sapiens, UniProt O96013)
T13 construct: purchased Invitrogen (Life Technologies) SelectScreen Z'-LYTE
Method: as §1

[1] = target: T14, P1K3CA/PIK3R1 (p110 alpha) (Homo sapiens, UniProt P42336)
T14 construct: purchased Invitrogen (Life Technologies) SelectScreen Z'-LYTE
Method: as §1

FGFR3 = target: T15, FGFR3 (Homo sapiens, UniProt P22607)
T15 construct: purchased Invitrogen (Life Technologies) SelectScreen Z'-LYTE
Method: as §1

PRKCQ (PKC theta) = target: T16, PRKCQ (PKC theta) (Homo sapiens, UniProt Q04759)
T16 construct: purchased Invitrogen (Life Technologies) SelectScreen Z'-LYTE
Method: as §1

PDK1 Direct = target: T17, PDK1 Direct (Homo sapiens, UniProt O15530)
T17 construct: purchased Invitrogen (Life Technologies) SelectScreen Z'-LYTE
T17 sequence (O15530 1-556): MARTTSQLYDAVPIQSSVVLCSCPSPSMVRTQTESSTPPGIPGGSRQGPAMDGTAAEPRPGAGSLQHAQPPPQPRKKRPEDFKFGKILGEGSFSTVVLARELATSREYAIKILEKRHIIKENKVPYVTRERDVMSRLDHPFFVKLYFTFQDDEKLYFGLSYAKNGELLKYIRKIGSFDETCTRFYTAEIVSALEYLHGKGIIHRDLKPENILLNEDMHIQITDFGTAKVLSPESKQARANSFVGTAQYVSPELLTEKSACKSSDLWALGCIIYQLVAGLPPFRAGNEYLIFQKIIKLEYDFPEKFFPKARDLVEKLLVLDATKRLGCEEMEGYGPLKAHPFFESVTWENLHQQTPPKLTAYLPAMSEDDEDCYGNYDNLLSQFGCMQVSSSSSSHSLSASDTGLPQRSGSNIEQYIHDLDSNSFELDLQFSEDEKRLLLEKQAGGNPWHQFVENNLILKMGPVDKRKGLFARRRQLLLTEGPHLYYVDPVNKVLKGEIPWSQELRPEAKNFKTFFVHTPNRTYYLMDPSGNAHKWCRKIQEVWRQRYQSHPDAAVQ
Method: as §1

T8 sequence (P27448 whole entry): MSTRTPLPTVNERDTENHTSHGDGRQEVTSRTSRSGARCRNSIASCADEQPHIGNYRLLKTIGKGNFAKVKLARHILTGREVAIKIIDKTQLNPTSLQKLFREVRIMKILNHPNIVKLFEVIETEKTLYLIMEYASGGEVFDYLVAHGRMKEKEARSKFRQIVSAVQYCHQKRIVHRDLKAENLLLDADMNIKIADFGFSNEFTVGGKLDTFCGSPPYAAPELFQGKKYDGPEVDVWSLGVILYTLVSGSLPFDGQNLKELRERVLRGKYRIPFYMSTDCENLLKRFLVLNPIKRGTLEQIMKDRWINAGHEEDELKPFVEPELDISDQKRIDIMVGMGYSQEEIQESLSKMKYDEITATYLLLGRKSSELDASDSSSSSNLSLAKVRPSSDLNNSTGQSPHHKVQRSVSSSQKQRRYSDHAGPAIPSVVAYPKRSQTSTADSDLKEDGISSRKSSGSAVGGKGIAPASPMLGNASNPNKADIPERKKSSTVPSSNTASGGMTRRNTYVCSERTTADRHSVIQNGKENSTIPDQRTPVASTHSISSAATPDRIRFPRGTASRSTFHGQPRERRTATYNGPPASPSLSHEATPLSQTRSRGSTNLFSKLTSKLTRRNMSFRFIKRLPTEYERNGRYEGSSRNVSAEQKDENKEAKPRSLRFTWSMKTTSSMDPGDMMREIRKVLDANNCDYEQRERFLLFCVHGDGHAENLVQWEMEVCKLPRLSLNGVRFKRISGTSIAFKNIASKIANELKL
T16 sequence (Q04759 whole entry): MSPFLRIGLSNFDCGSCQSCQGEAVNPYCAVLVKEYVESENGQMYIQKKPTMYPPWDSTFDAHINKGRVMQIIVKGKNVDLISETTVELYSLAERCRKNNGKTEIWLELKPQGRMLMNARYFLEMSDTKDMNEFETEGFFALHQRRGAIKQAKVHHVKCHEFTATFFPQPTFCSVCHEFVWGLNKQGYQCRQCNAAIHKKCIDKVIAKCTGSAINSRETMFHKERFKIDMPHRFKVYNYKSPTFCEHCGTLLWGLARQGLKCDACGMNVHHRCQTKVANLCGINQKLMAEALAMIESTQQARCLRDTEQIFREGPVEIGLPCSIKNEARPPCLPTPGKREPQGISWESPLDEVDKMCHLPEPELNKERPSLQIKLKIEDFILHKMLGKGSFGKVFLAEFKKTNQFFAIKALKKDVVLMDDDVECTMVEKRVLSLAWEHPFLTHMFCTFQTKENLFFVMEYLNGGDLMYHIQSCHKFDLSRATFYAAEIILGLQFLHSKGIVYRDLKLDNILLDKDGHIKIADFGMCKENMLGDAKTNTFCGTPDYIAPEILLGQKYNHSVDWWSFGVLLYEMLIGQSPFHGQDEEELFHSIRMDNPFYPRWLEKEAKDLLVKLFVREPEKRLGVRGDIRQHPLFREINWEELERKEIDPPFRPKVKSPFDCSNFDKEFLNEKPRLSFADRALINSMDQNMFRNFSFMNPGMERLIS
T13 sequence (O96013 whole entry): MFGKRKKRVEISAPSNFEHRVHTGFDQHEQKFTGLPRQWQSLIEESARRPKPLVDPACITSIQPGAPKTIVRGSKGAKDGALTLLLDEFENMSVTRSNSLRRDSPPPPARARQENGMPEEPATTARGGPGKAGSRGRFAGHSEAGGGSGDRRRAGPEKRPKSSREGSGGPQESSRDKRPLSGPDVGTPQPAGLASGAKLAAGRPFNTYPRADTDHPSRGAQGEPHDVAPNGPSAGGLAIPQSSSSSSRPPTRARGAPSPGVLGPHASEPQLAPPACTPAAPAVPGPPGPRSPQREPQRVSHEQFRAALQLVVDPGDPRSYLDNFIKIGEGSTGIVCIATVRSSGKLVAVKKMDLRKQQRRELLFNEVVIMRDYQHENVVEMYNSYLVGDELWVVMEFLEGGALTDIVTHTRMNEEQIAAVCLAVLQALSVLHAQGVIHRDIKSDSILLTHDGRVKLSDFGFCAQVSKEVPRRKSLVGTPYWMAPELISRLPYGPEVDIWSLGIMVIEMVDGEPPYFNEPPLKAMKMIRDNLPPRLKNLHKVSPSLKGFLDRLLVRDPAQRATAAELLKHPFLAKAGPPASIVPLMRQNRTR
T12 sequence (P15056 whole entry): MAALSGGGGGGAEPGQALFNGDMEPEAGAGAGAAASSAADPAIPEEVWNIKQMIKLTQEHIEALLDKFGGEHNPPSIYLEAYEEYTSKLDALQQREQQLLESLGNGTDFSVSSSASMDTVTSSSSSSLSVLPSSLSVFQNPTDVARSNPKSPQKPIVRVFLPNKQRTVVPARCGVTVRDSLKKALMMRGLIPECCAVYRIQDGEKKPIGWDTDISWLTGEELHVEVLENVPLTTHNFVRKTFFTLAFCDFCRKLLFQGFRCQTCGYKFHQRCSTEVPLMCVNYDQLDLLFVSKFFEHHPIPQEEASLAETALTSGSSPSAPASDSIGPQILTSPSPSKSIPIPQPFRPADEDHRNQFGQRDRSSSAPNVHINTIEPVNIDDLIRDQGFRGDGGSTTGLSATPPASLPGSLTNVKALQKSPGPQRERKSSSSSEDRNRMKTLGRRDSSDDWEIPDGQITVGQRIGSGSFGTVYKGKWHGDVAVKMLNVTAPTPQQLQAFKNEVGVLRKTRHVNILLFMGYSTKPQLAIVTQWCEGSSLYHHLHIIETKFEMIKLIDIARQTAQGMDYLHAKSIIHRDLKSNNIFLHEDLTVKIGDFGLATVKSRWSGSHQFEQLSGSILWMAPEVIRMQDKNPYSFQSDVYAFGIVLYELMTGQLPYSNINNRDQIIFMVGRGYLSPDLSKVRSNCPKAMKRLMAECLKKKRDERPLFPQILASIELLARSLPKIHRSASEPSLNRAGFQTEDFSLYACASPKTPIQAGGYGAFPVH
T10 sequence (P08069 31-1367): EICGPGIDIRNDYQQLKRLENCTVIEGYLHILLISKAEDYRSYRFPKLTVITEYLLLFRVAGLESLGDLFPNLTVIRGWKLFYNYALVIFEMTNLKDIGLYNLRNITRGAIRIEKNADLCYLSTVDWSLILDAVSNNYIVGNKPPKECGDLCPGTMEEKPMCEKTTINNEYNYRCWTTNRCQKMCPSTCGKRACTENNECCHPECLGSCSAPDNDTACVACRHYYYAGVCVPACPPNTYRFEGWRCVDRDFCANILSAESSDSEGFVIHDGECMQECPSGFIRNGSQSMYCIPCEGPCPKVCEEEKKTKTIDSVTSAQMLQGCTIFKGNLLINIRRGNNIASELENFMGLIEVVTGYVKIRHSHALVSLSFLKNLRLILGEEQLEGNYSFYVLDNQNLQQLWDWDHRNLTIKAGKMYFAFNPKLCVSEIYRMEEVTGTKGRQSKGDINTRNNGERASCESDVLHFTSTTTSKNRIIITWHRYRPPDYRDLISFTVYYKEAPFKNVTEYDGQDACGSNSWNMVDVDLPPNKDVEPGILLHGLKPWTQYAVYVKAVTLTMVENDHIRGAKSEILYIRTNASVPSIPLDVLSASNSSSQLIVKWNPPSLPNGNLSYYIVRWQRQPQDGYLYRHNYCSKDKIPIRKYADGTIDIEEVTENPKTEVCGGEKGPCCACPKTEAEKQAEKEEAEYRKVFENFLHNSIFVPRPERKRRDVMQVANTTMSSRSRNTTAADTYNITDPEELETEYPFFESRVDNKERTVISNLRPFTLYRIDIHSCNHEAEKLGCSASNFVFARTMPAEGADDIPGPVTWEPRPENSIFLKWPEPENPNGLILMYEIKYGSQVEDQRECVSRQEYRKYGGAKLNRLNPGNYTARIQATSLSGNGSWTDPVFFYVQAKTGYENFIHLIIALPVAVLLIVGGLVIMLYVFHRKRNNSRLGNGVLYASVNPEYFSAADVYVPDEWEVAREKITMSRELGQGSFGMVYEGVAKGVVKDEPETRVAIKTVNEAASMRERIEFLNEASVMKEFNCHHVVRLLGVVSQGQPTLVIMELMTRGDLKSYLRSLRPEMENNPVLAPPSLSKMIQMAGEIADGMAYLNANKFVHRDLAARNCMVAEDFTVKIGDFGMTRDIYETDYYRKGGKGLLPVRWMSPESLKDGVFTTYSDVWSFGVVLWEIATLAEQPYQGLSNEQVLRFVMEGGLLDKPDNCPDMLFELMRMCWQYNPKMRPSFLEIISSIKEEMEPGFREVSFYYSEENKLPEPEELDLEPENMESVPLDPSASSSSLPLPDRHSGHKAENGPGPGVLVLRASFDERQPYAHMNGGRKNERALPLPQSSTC
T9 sequence (Q9P286 whole entry): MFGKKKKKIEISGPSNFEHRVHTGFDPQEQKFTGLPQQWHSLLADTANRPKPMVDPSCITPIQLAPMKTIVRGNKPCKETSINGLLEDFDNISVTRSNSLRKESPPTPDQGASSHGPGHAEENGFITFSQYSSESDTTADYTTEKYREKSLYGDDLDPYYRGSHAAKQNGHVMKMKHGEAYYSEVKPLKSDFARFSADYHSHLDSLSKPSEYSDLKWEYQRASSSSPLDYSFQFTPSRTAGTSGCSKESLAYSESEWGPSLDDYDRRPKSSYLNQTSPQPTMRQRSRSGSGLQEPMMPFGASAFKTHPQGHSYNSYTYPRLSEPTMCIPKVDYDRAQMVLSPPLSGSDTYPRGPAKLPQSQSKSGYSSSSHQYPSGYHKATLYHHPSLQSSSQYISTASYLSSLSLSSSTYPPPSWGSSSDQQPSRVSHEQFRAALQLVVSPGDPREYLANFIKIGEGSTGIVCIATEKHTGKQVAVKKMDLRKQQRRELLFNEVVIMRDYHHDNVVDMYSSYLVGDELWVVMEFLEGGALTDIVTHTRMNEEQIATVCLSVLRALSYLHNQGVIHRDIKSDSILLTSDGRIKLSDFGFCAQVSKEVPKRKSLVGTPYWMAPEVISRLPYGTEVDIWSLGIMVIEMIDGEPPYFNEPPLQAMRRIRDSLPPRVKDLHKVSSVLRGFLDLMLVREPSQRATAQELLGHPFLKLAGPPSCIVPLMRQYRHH

SMILES | % inhibition of activity (MAPK10 (JNK3)) | % inhibition of activity (MAP2K1 (MEK1)) | % inhibition of activity (CHEK2 (CHK2)) | % inhibition of activity (DYRK1A) | % inhibition of activity (ACVR1B (ALK4)) | % inhibition of activity (P1K3C2B (P13K-C2-beta)) | % inhibition of activity (PAK3) | % inhibition of activity (MARK3) | % inhibition of activity (PAK7 (KIAA 1264)) | % inhibition of activity (IGF1R) | % inhibition of activity (PRKCE (PKC epsilon)) | % inhibition of activity (BRAF) | % inhibition of activity (Pak4) | % inhibition of activity [1] | % inhibition of activity (FGFR3) | % inhibition of activity (PRKCQ (PKC theta)) | % inhibition of activity (PDK1 Direct)
CCn1c(=O)c(-c2ccc(-c3cncc(C)n3)cc2Cl)cc2cnc(NCCC3CCN(C)CC3)nc21 [Frax1036] | 45% | 27% | 7% | 5% | 0% | 2% | 106% | 24% | 9% | 7% | 25% | 7% | 6% | 0% | 0% | 24% | 0%
Cc1nc(Nc2[nH]nc3c2CN(C(=O)N[C@H](CN(C)C)c2ccccc2)C3(C)C)c2sccc2n1 [PF3758309, reference compound] | 5% | 39% | 99% | 6% | 1% | 8% | 100% | 100% | 99% | 10% | 62% | 52% | 99% | 0% | 31% | 97% | 67%
CCn1c(=O)c(-c2ccc(-c3noc(C)n3)cc2Cl)cc2cnc(Nc3ccc(C4CCN(C)CC4)cc3)nc21 [Frax716] | 12% | 48% | 17% | 3% | −9% | −1% | 90% | 16% | 17% | 23% | 14% | 72% | 7% | −1% | 35% | 12% | 15%
